Measurements: patent publication US20230218723A1, “COMPOSITIONS AND METHODS FOR USING SILK-ELASTINLIKE PROTEIN-BASED POLYMERS” (University of Utah Research Foundation, priority 2019, published 2023)

How the values were obtained:
[1] = ICG fluorescence imaging, IVIS and clinical endoscope; assay type: physicochemical
Method: A Karl Storz 4 mm×18 cm ICG endoscope (Karl Storz, Tuttlingen, Germany) attached with a Power LED light source with fiber optic ICG cable and Karl Storz Image is Video System with ICG High Def Camera Head (Karl Storz, Tuttlingen, Germany) was used for imaging the ICG at different concentrations. ICG solution was prepared by mixing 25 mg of ICG in 1 mL of water, resulting in a 25 mg/mL solution. The solution was diluted by half in subsequent wells of a 96-well plate, and the last well was filled with only water (negative control). The endoscope's imaging head was held 4 mm above the surface of the 96-well plate to acquire images. Fluorescent light was captured by the camera and shown as blue. The intensity of the fluorescent light was quantified using the Zen Lite Blue software version 2.6 (Zeiss, Oberkochen, Germany). A fixed area of equal size for each well was selected, and the fluorescence was quantified by taking the arithmetic mean intensity of blue contribution for that particular region in pixels. IVIS was used to image ICG at different concentrations. […] An overlay image combination of photographic and fluorescent image was recorded. The region of interest (ROI) tool was used to perform quantification of the surface intensities. Equal size ROIs were drawn on each well of the plate, and the radiant efficiency was recorded by the software for each defined ROI. […]

[2] = tested on: L-929 fibroblasts; assay: Cytotoxicity of ICG and SELP-ICG, CCK-8, L-929; assay type: cell-based, murine; settings: L929 cells, 24 hrs, as ICG concentration
Source text: (§1) L-929 and HUVEC were selected for use in assessing the cytotoxicity of the SELP-ICG embolic based upon their utility with respect to regulatory testing and relevance to the intended application of the device. L-929 cells are commonly used for FDA testing of contact cytotoxicity of medical devices, such as embolics. HUVEC represents a human cell line, another common cell that is also frequently used for evaluating cytotoxicity. Additionally, HUVEC represents vascular endothelial cells that embolic SELP will be in close contact with during in vivo administration. L-929 fibroblasts were grown with Dulbecco's Modified Eagle Medium (DMEM):F12 (1:1) media, supplemented with 10% FBS, and HUVECs were grown in ECGM. The cells were grown in T-75 flasks at 37° C. with 5% CO2 and passaged at 80-95% confluency. Cells were suspended using TrypLE™ Express Enzyme with no phenol red according to the manufactures protocol. The viability of cells was assessed using 0.4% trypan blue stain using a Countess Automated Cell Counter (ThermoFisher Scientific, Waltham, Mass.). L-929 cells were seeded into new T-75 flasks with 3×10^5 to 6×10^5 viable cells. […] Viability was measured after 24 hrs using a Cell Counting Kit (CCK)-8 assay kit (Dojindo, Kumamoto, Japan). […] LD50 values were determined by fitting the data to a Hill plot with a variable slope using GraphPad Prism 5.0.

[3] = tested on: HUVEC; assay: Cytotoxicity of ICG and SELP-ICG, CCK-8, HUVEC; assay type: cell-based, human; settings: 24 hrs, as ICG concentration
Source text: as §1

[4] = cited from earlier work

CC1(C)C(/C=C/C=C/C=C/C=C2\N(CCCCS(=O)(=O)O)c3ccc4ccccc4c3C2(C)C)=[N+](CCCCS(=O)(=O)[O-])c2ccc3ccccc3c21 [ICG, Indocyanine green]
optimal concentration for fluorescence ([1]; IVIS and Karl Storz ICG endoscope): 0.012 mg/mL | concentration above which self-quenching occurs ([1]; image analysis): higher than 0.012 mg/mL | LD50 [2]: 0.28 ± 0.14 mg/mL | LD50 [3]: 0.068 ± 0.009 mg/mL | half-life ([4]; clearance from the bloodstream after intravenous administration): 3 to 5 min | share of the dose remaining within the tumor by the time of surgery ([4]; intravenous administration): approximately 0.05%
